In patent EP2077855B1, “THERAPEUTIC USE OF GBA2” (Yildiz, Dr. med., Yildiz, priority 2006, dated 2008):
Several values for one entry are separate records, joined by “and”; a condition that tells them apart may be missing. Equal entries are not always repeated. Blank lines part the entries; values can stand above or below the compound they belong to.

Key:
[1] = biological target: T1, recombinant GBA2 produced in insect cells (His-tagged isolated enzyme) (Homo sapiens, UniProt Q9HCG7); test: Glucosidase activity of recombinant GBA2 produced in insect cells upon addition of test compounds; assay type: biochemical; set-up: enzyme activity: unit not given here; conditions: insect cell produced recombinant GBA2, incubation time 15; for mean value: mean counts
T1 construct: His tag; made in house; host or cells: insect cells
T1 sequence (Q9HCG7 1-927): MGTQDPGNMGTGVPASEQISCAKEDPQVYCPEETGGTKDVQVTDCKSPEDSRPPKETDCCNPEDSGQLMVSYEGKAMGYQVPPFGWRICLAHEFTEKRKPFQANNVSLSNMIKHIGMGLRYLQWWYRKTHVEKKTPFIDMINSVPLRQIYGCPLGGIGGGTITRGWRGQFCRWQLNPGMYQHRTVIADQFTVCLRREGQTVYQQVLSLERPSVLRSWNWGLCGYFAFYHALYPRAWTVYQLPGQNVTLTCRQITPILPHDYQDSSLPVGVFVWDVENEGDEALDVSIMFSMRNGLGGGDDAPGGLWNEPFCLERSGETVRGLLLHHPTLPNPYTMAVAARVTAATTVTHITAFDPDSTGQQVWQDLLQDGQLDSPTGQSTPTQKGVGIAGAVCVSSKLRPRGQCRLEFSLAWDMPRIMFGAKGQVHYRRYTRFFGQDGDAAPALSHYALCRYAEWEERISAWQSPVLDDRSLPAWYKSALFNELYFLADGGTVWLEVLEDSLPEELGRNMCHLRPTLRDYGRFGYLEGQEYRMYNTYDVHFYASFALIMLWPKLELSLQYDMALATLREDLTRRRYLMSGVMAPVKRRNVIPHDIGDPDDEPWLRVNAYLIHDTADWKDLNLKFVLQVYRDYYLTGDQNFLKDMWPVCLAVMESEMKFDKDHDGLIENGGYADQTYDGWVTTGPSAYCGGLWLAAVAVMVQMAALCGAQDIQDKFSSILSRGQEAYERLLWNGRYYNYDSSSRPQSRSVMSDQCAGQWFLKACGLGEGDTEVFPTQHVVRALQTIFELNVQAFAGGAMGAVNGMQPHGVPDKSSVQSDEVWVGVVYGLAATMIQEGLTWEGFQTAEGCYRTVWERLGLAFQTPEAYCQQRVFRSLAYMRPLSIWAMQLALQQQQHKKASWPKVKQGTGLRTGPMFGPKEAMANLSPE
Method: (§1) Following the method for measurement of glucosidase activity described in ((Matern, H. et al., J. Biol. Chem. 272:11,261-11,267 (1997), the effect of several test compounds (like bivalent cations and detergents) on the glucosidase activity of recombinant GBA2 produced in insect cells (His-tagged isolated enzyme) and of human liver microsomes was compared. The glucosidase activity of human liver was tested in a microsomal preparation. The tested compounds were: cations including nickel, zinc, cobalt, manganese, calcium, magnesium and barium; detergents including Chaps, Triton X100, taurocholate, Brij58; and phospholipids including lyso-phosphatidylcholine, sphingomyelin, phosphatidylcholine, phosphatidyl-serine, phosphatidylethanolamine and phosphatidylinositol. The enzyme activity results for the recombinant GBA2 were similar or even better than the results for human liver microsomal GBA2 activity. Representative results are summarized in Table 5; the data for the remaining test compounds is not shown. Result: Expression of GBA2 in insect cells leads to recombinant GBA2 whose glucosidase activity is similar to or even higher than the glucosidase activity of human liver microsomes. Table 5: Glucosidase activity of microsomal human liver and GBA2 from insect cells upon addition of sphingomyelin (A, B) and cobalt (C, D). The microsomal preparations were diluted 1:8 with Chaps before use. Measurements were performed in duplicate or triplicate.

[2] = biological target: T2, human liver microsomal GBA2 activity (Homo sapiens, UniProt Q9HCG7); test: Glucosidase activity of human liver microsomes upon addition of test compounds; assay type: biochemical; set-up: enzyme activity: unit not given here; conditions: human liver microsomes diluted 1:8 with Chaps, incubation time 15; for mean value: mean counts
T2 construct: from tissue; host or cells: human liver microsomes
T2 sequence (Q9HCG7 1-927): T1 sequence (Q9HCG7 1-927)
Method: as §1

mean value ([1]; sphingomyelin 0,3mM): 674,56
mean value ([1]; sphingomyelin 0,15mM): 591,95
mean value ([1]; sphingomyelin 0,75mM): 537,54
mean value ([1]; sphingomyelin 3mM): 652,37
mean value ([1]; sphingomyelin 6mM): 493,49
mean value ([1]; sphingomyelin 12mM): 510,93
mean value ([1]; sphingomyelin 1,5mM): 643,44
% of control ([1]; sphingomyelin 0,3mM): 104%
counts ([1]; sphingomyelin 0,3mM): 675,57 and 673,54
enzyme activity ([1]; sphingomyelin 0,3mM): 2,5788
% of control ([1]; sphingomyelin 0,15mM): 89%
counts ([1]; sphingomyelin 0,15mM): 579,66 and 604,24
enzyme activity ([1]; sphingomyelin 0,15mM): 2,1969
% of control ([1]; sphingomyelin 0,75mM): 79%
counts ([1]; sphingomyelin 0,75mM): 541,76 and 533,32
enzyme activity ([1]; sphingomyelin 0,75mM): 1,9454
% of control ([1]; sphingomyelin 3mM): 100%
counts ([1]; sphingomyelin 3mM): 699,42 and 605,31
enzyme activity ([1]; sphingomyelin 3mM): 2,4762
% of control ([1]; sphingomyelin 6mM): 70%
counts ([1]; sphingomyelin 6mM): 473,49 and 513,48
enzyme activity ([1]; sphingomyelin 6mM): 1,7418
% of control ([1]; sphingomyelin 12mM): 74%
counts ([1]; sphingomyelin 12mM): 489,65 and 532,21
enzyme activity ([1]; sphingomyelin 12mM): 1,8224
% of control ([1]; sphingomyelin 1,5mM): 98%
counts ([1]; sphingomyelin 1,5mM): 630,13 and 656,75
enzyme activity ([1]; sphingomyelin 1,5mM): 2,4349
mean value ([2]; sphingomyelin 0,3mM): 195,30
mean value ([2]; sphingomyelin 0,15mM): 206,72
mean value ([2]; sphingomyelin 0,75mM): 206,21
mean value ([2]; sphingomyelin 3mM): 214,01
mean value ([2]; sphingomyelin 6mM): 208,40
mean value ([2]; sphingomyelin 12mM): 195,24
mean value ([2]; sphingomyelin 1,5mM): 201,66
% of control ([2]; sphingomyelin 0,3mM): 68%
counts ([2]; sphingomyelin 0,3mM): 187,68 and 202,92
enzyme activity ([2]; sphingomyelin 0,3mM): 1,4089
% of control ([2]; sphingomyelin 0,15mM): 78%
counts ([2]; sphingomyelin 0,15mM): 215,51 and 197,93
enzyme activity ([2]; sphingomyelin 0,15mM): 1,6200
% of control ([2]; sphingomyelin 0,75mM): 78%
counts ([2]; sphingomyelin 0,75mM): 206,90 and 205,52
enzyme activity ([2]; sphingomyelin 0,75mM): 1,6106
% of control ([2]; sphingomyelin 3mM): 85%
counts ([2]; sphingomyelin 3mM): 225,57 and 202,45
enzyme activity ([2]; sphingomyelin 3mM): 1,7548
% of control ([2]; sphingomyelin 6mM): 80%
counts ([2]; sphingomyelin 6mM): 207,54 and 209,26
enzyme activity ([2]; sphingomyelin 6mM): 1,6511
% of control ([2]; sphingomyelin 12mM): 68%
counts ([2]; sphingomyelin 12mM): 189,25 and 201,23
enzyme activity ([2]; sphingomyelin 12mM): 1,4077
% of control ([2]; sphingomyelin 1,5mM): 74%
counts ([2]; sphingomyelin 1,5mM): 207,84 and 195,48
enzyme activity ([2]; sphingomyelin 1,5mM): 1,5264
Compound: sphingomyelin

Compound: [Co+2] [cobalt]
% of control ([1]; cobalt 0,01mM): 93%
counts ([1]; cobalt 0,01mM): 157,63 and 157,78
enzyme activity ([1]; cobalt 0,01mM): 0,1288
% of control ([1]; cobalt 0,1mM): 115%
counts ([1]; cobalt 0,1mM): 161,62 and 167,45
enzyme activity ([1]; cobalt 0,1mM): 0,1604
% of control ([1]; cobalt 0,05mM): 117%
counts ([1]; cobalt 0,05mM): 167,53 and 152,62 and 174,62
enzyme activity ([1]; cobalt 0,05mM): 0,1622
% of control ([1]; cobalt 0,5mM): 273%
counts ([1]; cobalt 0,5mM): 206,30 and 217,85
enzyme activity ([1]; cobalt 0,5mM): 0,3802
% of control ([1]; cobalt 1mM): 360%
counts ([1]; cobalt 1mM): 237,74 and 260,51 and 216,07
enzyme activity ([1]; cobalt 1mM): 0,5005
% of control ([1]; cobalt 5mM): 97%
counts ([1]; cobalt 5mM): 208,68 and 319,94
enzyme activity ([1]; cobalt 5mM): 0,6216
mean value ([1]; cobalt 0,01mM): 157,71
mean value ([1]; cobalt 0,1mM): 164,54
mean value ([1]; cobalt 0,05mM): 164,92
mean value ([1]; cobalt 0,5mM): 212,08
mean value ([1]; cobalt 1mM): 238,11
mean value ([1]; cobalt 5mM): 264,31
% of control ([2]; cobalt 0,01mM): 87%
counts ([2]; cobalt 0,01mM): 180,77 and 193,04 and 191,08
enzyme activity ([2]; cobalt 0,01mM): 1,0961
% of control ([2]; cobalt 0,05mM): 140%
counts ([2]; cobalt 0,05mM): 223,91 and 223,75 and 225,71
enzyme activity ([2]; cobalt 0,05mM): 1,7647
% of control ([2]; cobalt 0,001mM): 81%
enzyme activity ([2]; cobalt 0,001mM): 1,0240
% of control ([2]; cobalt 1mM): 155%
counts ([2]; cobalt 1mM): 234,69 and 233,72 and 236,26
enzyme activity ([2]; cobalt 1mM): 1,9576
% of control ([2]; cobalt 0,005mM): 84%
counts ([2]; cobalt 0,005mM): 192,98 and 191,68 and 174,52
enzyme activity ([2]; cobalt 0,005mM): 1,0610
% of control ([2]; cobalt 5mM): 163%
counts ([2]; cobalt 5mM): 233,59 and 235,10 and 251,13
enzyme activity ([2]; cobalt 5mM): 2,0510
mean value ([2]; cobalt 0,01mM): 188,30
mean value ([2]; cobalt 0,05mM): 224,46
mean value ([2]; cobalt 0,001mM): 84,391
mean value ([2]; cobalt 1mM): 234,89
mean value ([2]; cobalt 0,005mM): 186,39
mean value ([2]; cobalt 5mM): 239,941
